Experiments:
southern crabgrass [1] = experiment: Test Example 5: herbicidal effect by foliage application, plastic box (Table 20, symbol F); type: in vivo, southern crabgrass (Digitaria ciliaris); settings: foliage application
Summary of the method: (§1)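 Plants sown in sterilized diluvial soil and grown 14 days in a greenhouse at 25° C to 30° C, then sprayed on the foliage with the compound's emulsion diluted in water to a predetermined herbicide amount. Injury to weeds and crops scored three weeks after application on a visual rating scale.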

wild oat [2] = experiment: Test Example 4: herbicidal effect by soil treatment (Table 19, symbol I); type: in vivo, wild oat (Avena fatua)
Summary of the method: (§2)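 Three weeks of greenhouse growth at 25° C. to 30° C. followed a uniform surface spray of water-diluted emulsion at a predetermined herbicide amount. Seeds had been sown beforehand under about 1.5 cm of sterilized diluvial soil. Grading followed criteria set out in an earlier test.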

lambsquarters [3] = experiment: Test Example 4: herbicidal effect by soil treatment (Table 19, symbol O); type: in vivo, lambsquarters (Chenopodium album)
Summary of the method: as §2

barnyard grass [4] = experiment: Test Example 4: herbicidal effect by soil treatment (Table 19, symbol H); type: in vivo, barnyard grass (Echinochloa crus-galli)
Summary of the method: as §2

persian speedwell [5] = experiment: Test Example 5: herbicidal effect by foliage application, plastic box (Table 20, symbol R); type: in vivo, Persian speedwell (Veronica persica); settings: foliage application
Summary of the method: as §1

lambsquarters [6] = experiment: Test Example 5: herbicidal effect by foliage application, plastic box (Table 20, symbol O); type: in vivo, lambsquarters (Chenopodium album); settings: foliage application
Summary of the method: as §1

windgrass [7] = experiment: Test Example 4: herbicidal effect by soil treatment (Table 19, symbol L); type: in vivo, windgrass (Apera spica-venti)
Summary of the method: as §2

southern crabgrass [8] = experiment: Test Example 4: herbicidal effect by soil treatment (Table 19, symbol F); type: in vivo, southern crabgrass (Digitaria ciliaris)
Summary of the method: as §2

green foxtail [9] = experiment: Test Example 4: herbicidal effect by soil treatment (Table 19, symbol G); type: in vivo, green foxtail (Setaria viridis)
Summary of the method: as §2

Italian ryegrass [10] = experiment: Test Example 5: herbicidal effect by foliage application, plastic box (Table 20, symbol K); type: in vivo, Italian ryegrass (Lolium multiflorum); settings: foliage application
Summary of the method: as §1

Italian ryegrass [11] = experiment: Test Example 4: herbicidal effect by soil treatment (Table 19, symbol K); type: in vivo, Italian ryegrass (Lolium multiflorum)
Summary of the method: as §2

rice flat sedge = experiment: Test Example 3: herbicidal effect by foliage application, Wagner pot (Table 18, symbol E); type: in vivo, rice flat sedge (Cyperus iria); settings: 294 g/ha
Summary of the method: (§3)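 Plants were sown in alluvial soil held under 0.1–0.5 cm standing water and grown 14 days in a greenhouse at 25–30 °C. An emulsifiable formulation, water-diluted to the set dose, was then sprayed onto the foliage, and effects were scored three weeks later using previously defined criteria.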

barnyard grass [12] = experiment: Test Example 3: herbicidal effect by foliage application, Wagner pot (Table 18, symbol H); type: in vivo, barnyard grass (Echinochloa crus-galli); settings: 294 g/ha
Summary of the method: as §3

green foxtail [13] = experiment: Test Example 5: herbicidal effect by foliage application, plastic box (Table 20, symbol G); type: in vivo, green foxtail (Setaria viridis); settings: foliage application
Summary of the method: as §1

velvetleaf [14] = experiment: Test Example 4: herbicidal effect by soil treatment (Table 19, symbol M); type: in vivo, velvetleaf (Abutilon theophrasti)
Summary of the method: as §2

barnyard grass [15] = experiment: Test Example 5: herbicidal effect by foliage application, plastic box (Table 20, symbol H); type: in vivo, barnyard grass (Echinochloa crus-galli); settings: foliage application
Summary of the method: as §1

persian speedwell [16] = experiment: Test Example 4: herbicidal effect by soil treatment (Table 19, symbol R); type: in vivo, Persian speedwell (Veronica persica)
Summary of the method: as §2

blackgrass [17] = experiment: Test Example 5: herbicidal effect by foliage application, plastic box (Table 20, symbol J); type: in vivo, blackgrass (Alopecurus myosuroides); settings: foliage application
Summary of the method: as §1

velvetleaf [18] = experiment: Test Example 5: herbicidal effect by foliage application, plastic box (Table 20, symbol M); type: in vivo, velvetleaf (Abutilon theophrasti); settings: foliage application
Summary of the method: as §1

chickweed = experiment: Test Example 4: herbicidal effect by soil treatment (Table 19, symbol P); type: in vivo, common chickweed (Stellaria media)
Summary of the method: as §2

blackgrass [19] = experiment: Test Example 4: herbicidal effect by soil treatment (Table 19, symbol J); type: in vivo, blackgrass (Alopecurus myosuroides)
Summary of the method: as §2

windgrass [20] = experiment: Test Example 5: herbicidal effect by foliage application, plastic box (Table 20, symbol L); type: in vivo, windgrass (Apera spica-venti); settings: foliage application
Summary of the method: as §1

Chinese sprangletop = experiment: Test Example 3: herbicidal effect by foliage application, Wagner pot (Table 18, symbol D); type: in vivo, chinese sprangletop (Leptochloa chinensis); settings: 294 g/ha
Summary of the method: as §3

false cleavers = experiment: Test Example 5: herbicidal effect by foliage application, plastic box (Table 20, symbol Q); type: in vivo, false cleavers (Galium spurium); settings: foliage application
Summary of the method: as §1

redroot pigweed = experiment: Test Example 4: herbicidal effect by soil treatment (Table 19, symbol N); type: in vivo, redroot pigweed (Amaranthus retroflexus)
Summary of the method: as §2

wild oat [21] = experiment: Test Example 5: herbicidal effect by foliage application, plastic box (Table 20, symbol I); type: in vivo, wild oat (Avena fatua); settings: foliage application
Summary of the method: as §1

[22] = 294 g/ha, 3 weeks after application
[23] = 194 g/ha, three weeks after application
[24] = amount of applied herbicide 194 g/ha

COc1ccccc1-c1sc2ccc(F)cc2c1-c1c(O)c(C)nn(C)c1=O [2-024]
effect on southern crabgrass (F) (southern crabgrass [1]; [22]): 3 (Herbicidal rate of 40% or more and less than 70%) | herbicidal effect rating, I: wild oat (wild oat [2]; 294 g/ha): 0 (Herbicidal rate of 5% or less (almost no effect)) | herbicidal effect rating, O: lambsquarters (lambsquarters [3]; 294 g/ha): 5 (Herbicidal rate of 90% or more (almost completely withered)) | herbicidal effect rating, H: barnyard grass (barnyard grass [4]; 294 g/ha): 1 (Herbicidal rate of 5% or more and less than 20%) | effect on persian speedwell (R) (persian speedwell [5]; [22]): 5 (Herbicidal rate of 90% or more (almost completely withered)) | effect on lambsquarters (O) (lambsquarters [6]; [22]): 5 (Herbicidal rate of 90% or more (almost completely withered)) | herbicidal effect rating, L: windgrass (windgrass [7]; 294 g/ha): 0 (Herbicidal rate of 5% or less (almost no effect)) | herbicidal effect rating, F: southern crabgrass (southern crabgrass [8]; 294 g/ha): 3 (Herbicidal rate of 40% or more and less than 70%) | herbicidal effect rating, G: green foxtail (green foxtail [9]; 294 g/ha): 3 (Herbicidal rate of 40% or more and less than 70%) | effect on Italian ryegrass (K) (Italian ryegrass [10]; [22]): 3 (Herbicidal rate of 40% or more and less than 70%) | herbicidal effect rating, K: Italian ryegrass (Italian ryegrass [11]; 294 g/ha): 0 (Herbicidal rate of 5% or less (almost no effect)) | herbicidal effect on E (rice flat sedge), rating 0-5 (rice flat sedge): 4 (Herbicidal rate of 70% or more and less than 90%) | herbicidal effect on H (barnyard grass), rating 0-5 (barnyard grass [12]): 4 (Herbicidal rate of 70% or more and less than 90%) | effect on green foxtail (G) (green foxtail [13]; [22]): 4 (Herbicidal rate of 70% or more and less than 90%) | herbicidal effect rating, M: velvetleaf (velvetleaf [14]; 294 g/ha): 2 (Herbicidal rate of 20% or more and less than 40%) | effect on barnyard grass (H) (barnyard grass [15]; [22]): 5 (Herbicidal rate of 90% or more (almost completely withered)) | herbicidal effect rating, R: persian speedwell (persian speedwell [16]; 294 g/ha): 4 (Herbicidal rate of 70% or more and less than 90%) | effect on blackgrass (J) (blackgrass [17]; [22]): 5 (Herbicidal rate of 90% or more (almost completely withered)) | effect on velvetleaf (M) (velvetleaf [18]; [22]): 5 (Herbicidal rate of 90% or more (almost completely withered)) | herbicidal effect rating, P: chickweed (chickweed; 294 g/ha): 3 (Herbicidal rate of 40% or more and less than 70%) | herbicidal effect rating, J: blackgrass (blackgrass [19]; 294 g/ha): 2 (Herbicidal rate of 20% or more and less than 40%) | effect on windgrass (L) (windgrass [20]; [22]): 4 (Herbicidal rate of 70% or more and less than 90%) | herbicidal effect on D (Chinese sprangletop), rating 0-5 (Chinese sprangletop): 3 (Herbicidal rate of 40% or more and less than 70%) | effect on false cleavers (Q) (false cleavers; [22]): 5 (Herbicidal rate of 90% or more (almost completely withered)) | herbicidal effect rating, N: redroot pigweed (redroot pigweed; 294 g/ha): 5 (Herbicidal rate of 90% or more (almost completely withered)) | effect on wild oat (I) (wild oat [21]; [22]): 4 (Herbicidal rate of 70% or more and less than 90%)

Cc1ccc2oc(-c3ccc(F)cc3)c(-c3c(O)c(C)nn(C)c3=O)c2c1 [9-004]
herbicidal effect on southern crabgrass (F) (southern crabgrass [1]; [23]): 2 (Herbicidal rate of 20% or more and less than 40%) | I: wild oat, herbicidal effect grade (wild oat [2]; [24]): 0 (Herbicidal rate of 5% or less (almost no effect)) | O: lambsquarters, herbicidal effect grade (lambsquarters [3]; [24]): 5 (Herbicidal rate of 90% or more (almost completely withered)) | H: barnyard grass, herbicidal effect grade (barnyard grass [4]; [24]): 3 (Herbicidal rate of 40% or more and less than 70%) | herbicidal effect on persian speedwell (R) (persian speedwell [5]; [23]): 5 (Herbicidal rate of 90% or more (almost completely withered)) | herbicidal effect on lambsquarters (O) (lambsquarters [6]; [23]): 3 (Herbicidal rate of 40% or more and less than 70%) | L: windgrass, herbicidal effect grade (windgrass [7]; [24]): 0 (Herbicidal rate of 5% or less (almost no effect)) | F: southern crabgrass, herbicidal effect grade (southern crabgrass [8]; [24]): 2 (Herbicidal rate of 20% or more and less than 40%) | G: green foxtail, herbicidal effect grade (green foxtail [9]; [24]): 2 (Herbicidal rate of 20% or more and less than 40%) | herbicidal effect on Italian ryegrass (K) (Italian ryegrass [10]; [23]): 5 (Herbicidal rate of 90% or more (almost completely withered)) | K: Italian ryegrass, herbicidal effect grade (Italian ryegrass [11]; [24]): 4 (Herbicidal rate of 70% or more and less than 90%) | herbicidal effect on green foxtail (G) (green foxtail [13]; [23]): 3 (Herbicidal rate of 40% or more and less than 70%) | M: velvetleaf, herbicidal effect grade (velvetleaf [14]; [24]): 0 (Herbicidal rate of 5% or less (almost no effect)) | herbicidal effect on barnyard grass (H) (barnyard grass [15]; [23]): 3 (Herbicidal rate of 40% or more and less than 70%) | R: persian speedwell, herbicidal effect grade (persian speedwell [16]; [24]): 1 (Herbicidal rate of 5% or more and less than 20%) | herbicidal effect on blackgrass (J) (blackgrass [17]; [23]): 3 (Herbicidal rate of 40% or more and less than 70%) | herbicidal effect on velvetleaf (M) (velvetleaf [18]; [23]): 3 (Herbicidal rate of 40% or more and less than 70%) | P: chickweed, herbicidal effect grade (chickweed; [24]): 3 (Herbicidal rate of 40% or more and less than 70%) | J: blackgrass, herbicidal effect grade (blackgrass [19]; [24]): 0 (Herbicidal rate of 5% or less (almost no effect)) | herbicidal effect on windgrass (L) (windgrass [20]; [23]): 0 (Herbicidal rate of 5% or less (almost no effect)) | herbicidal effect on false cleavers (Q) (false cleavers; [23]): 4 (Herbicidal rate of 70% or more and less than 90%) | N: redroot pigweed, herbicidal effect grade (redroot pigweed; [24]): 3 (Herbicidal rate of 40% or more and less than 70%) | herbicidal effect on wild oat (I) (wild oat [21]; [23]): 0 (Herbicidal rate of 5% or less (almost no effect))

— patent publication US20230085307A1, “PYRIDAZINONE COMPOUND AND HERBICIDE” (NISSAN CHEMICAL CORPORATION, priority 2019, published 2023)
